# According to ChEMBL document CHEMBL2434941, “Synthesis of conformationally constrained γ-D-glutamyl-meso-diaminopimelic acid derivatives as ligands of nucleotide-binding oligomerization domain protein 1 (Nod1)” (Eur J Med Chem, 2013):
# Calls of active or inactive are those of the source. The rule behind the calls is not given here.
# What was measured:
# PBMC [1] = assay: Immunomodulatory activity in human PBMC assessed as increase in LPS-induced TNF-alpha production at 10 uM after 24 hrs by flow cytometric analysis; format: functional, cell-based
# PBMC [2] = assay: Immunomodulatory activity in human PBMC assessed as increase in IL-10 production at 10 uM after 24 hrs by flow cytometric analysis; format: functional, cell-based
# PBMC [3] = assay: Immunomodulatory activity in human PBMC assessed as increase in LPS-induced IL-8 production at 10 uM after 24 hrs by flow cytometric analysis; format: functional, cell-based
# PBMC [4] = assay: Immunomodulatory activity in human PBMC assessed as increase in IL-6 production at 10 uM after 24 hrs by flow cytometric analysis; format: functional, cell-based
# PBMC [5] = assay: Immunomodulatory activity in human PBMC assessed as increase in LPS-induced IL-6 production at 10 uM after 24 hrs by flow cytometric analysis; format: functional, cell-based
# [6] = target: T1, Nucleotide-binding oligomerization domain-containing protein 1 (Homo sapiens) (UniProt Q9Y239); assay: Agonist activity at human Nod1 expressed in human Ramos cells assessed as reduction of NF-kappaB transcriptional activity at 10 uM after 24 hrs by SEAP reporter gene assay in presence of nod1 antagonist noditinib-1; format: cell-based
# T1 sequence (whole entry): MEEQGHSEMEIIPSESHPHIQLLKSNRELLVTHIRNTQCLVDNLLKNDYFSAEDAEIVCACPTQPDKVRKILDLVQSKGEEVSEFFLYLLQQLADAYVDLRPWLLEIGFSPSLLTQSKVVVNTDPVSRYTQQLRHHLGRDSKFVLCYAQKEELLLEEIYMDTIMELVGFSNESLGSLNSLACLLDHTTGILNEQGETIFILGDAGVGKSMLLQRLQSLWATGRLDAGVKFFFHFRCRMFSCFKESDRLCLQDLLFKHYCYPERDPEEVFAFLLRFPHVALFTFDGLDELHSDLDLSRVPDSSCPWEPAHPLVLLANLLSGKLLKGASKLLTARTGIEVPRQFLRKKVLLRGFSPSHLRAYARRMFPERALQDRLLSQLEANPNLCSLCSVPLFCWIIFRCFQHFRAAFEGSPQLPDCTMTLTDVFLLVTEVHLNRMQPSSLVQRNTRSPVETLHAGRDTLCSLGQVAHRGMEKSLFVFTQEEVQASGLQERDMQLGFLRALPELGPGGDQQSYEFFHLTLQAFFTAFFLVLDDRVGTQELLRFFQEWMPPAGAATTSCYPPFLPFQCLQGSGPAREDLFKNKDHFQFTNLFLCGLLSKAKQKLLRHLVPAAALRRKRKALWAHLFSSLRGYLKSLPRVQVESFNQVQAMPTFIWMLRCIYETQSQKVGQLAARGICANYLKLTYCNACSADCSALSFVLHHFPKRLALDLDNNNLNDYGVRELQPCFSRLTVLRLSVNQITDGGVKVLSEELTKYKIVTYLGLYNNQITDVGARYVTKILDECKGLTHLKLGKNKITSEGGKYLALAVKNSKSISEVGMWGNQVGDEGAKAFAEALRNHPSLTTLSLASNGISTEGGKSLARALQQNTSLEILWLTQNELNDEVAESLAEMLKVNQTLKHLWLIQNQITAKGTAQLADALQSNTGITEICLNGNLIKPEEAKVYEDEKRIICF
# PBMC [7] = assay: Immunomodulatory activity in human PBMC assessed as increase in LPS-induced IL-12p70 production at 10 uM after 24 hrs by flow cytometric analysis; format: functional, cell-based
# PBMC [8] = assay: Immunomodulatory activity in human PBMC assessed as increase in LPS-induced IL-1beta production at 10 uM after 24 hrs by flow cytometric analysis; format: functional, cell-based
# PBMC [9] = assay: Immunomodulatory activity in human PBMC assessed as increase in TNF-alpha production at 10 uM after 24 hrs by flow cytometric analysis; format: functional, cell-based
# PBMC [10] = assay: Immunomodulatory activity in human PBMC assessed as increase in IL-1beta production at 10 uM after 24 hrs by flow cytometric analysis; format: functional, cell-based
# PBMC [11] = assay: Immunomodulatory activity in human PBMC assessed as increase in IL-12p70 production at 10 uM after 24 hrs by flow cytometric analysis; format: functional, cell-based
# [12] = target: T1, Nucleotide-binding oligomerization domain-containing protein 1 (Homo sapiens); assay: Agonist activity at human Nod1 expressed in human Ramos-Blue cells assessed as increase in NF-kappaB transcriptional activity at 10 uM after 24 hrs by SEAP reporter gene assay; format: cell-based
# PBMC [13] = assay: Immunomodulatory activity in human PBMC assessed as increase in LPS-induced IL-10 production at 10 uM after 24 hrs by flow cytometric analysis; format: functional, cell-based
# PBMC [14] = assay: Immunomodulatory activity in human PBMC assessed as increase in IL-8 production at 10 uM after 24 hrs by flow cytometric analysis; format: functional, cell-based
SMILES,Activity (PBMC [1]),Activity (PBMC [2]),Activity (PBMC [3]),Activity (PBMC [4]),Activity (PBMC [5]),Activity [6],Activity (PBMC [7]),Activity (PBMC [8]),Activity (PBMC [9]),Activity (PBMC [10]),Activity (PBMC [11]),Activity [12],Activity (PBMC [13]),Activity (PBMC [14])
CCCCCCCCCCCC(=O)N[C@H](CCC(=O)N[C@@H](C/C=C/[C@@H](N)C(=O)O)C(=O)O)C(=O)O,Active,Active,inactive,Active,Active,Active,inactive,inactive,Active,Active,inactive,Active,Active,Active
CCCCCCCCCCCCN(CCCCCCCCCCCC)[C@H](CCC(=O)N[C@@H](C/C=C/[C@@H](N)C(=O)O)C(=O)O)C(=O)O,inactive,Active,inactive,Active,Active,Active,inactive,inactive,Active,Active,inactive,Active,inactive,Active
CCCCCCCCCCCC(=O)N[C@H](CCC(=O)N[C@@H](/C=C/C[C@@H](N)C(=O)O)C(=O)O)C(=O)O,inactive,Active,inactive,Active,Active,Active,inactive,inactive,Active,Active,inactive,Active,Active,Active
CCCCCCCCCCCC(=O)N[C@H](CCC(=O)N[C@@H](CCC[C@@H](N)C(=O)O)C(=O)O)C(=O)O,Active,Active,inactive,Active,Active,Active,inactive,inactive,Active,Active,inactive,Active,Active,Active
CCCCCCCCCCCCN(CCCCCCCCCCCC)[C@H](CCC(=O)N[C@@H](/C=C/C[C@@H](N)C(=O)O)C(=O)O)C(=O)O,inactive,Active,inactive,Active,Active,Active,inactive,inactive,Active,Active,inactive,Active,Active,Active
